# Measured values reported in patent publication US20090123389A1, “Methods for modulating Th17 cell development in the treatment and prevention of cellulite” (priority 2007, published 2009).
# Tests used:
# CD4+ CD25− T cells [1] = experiment: Th17 differentiation / IL-17 expression of activated CD4+ CD25− T cells (TGFβ plus IL-6); assay type: cell-based, mouse; details: for inhibition of IL-17 expression by HPLC-purified enantiomers: TGFβ plus IL-6, day 4, compared with racemic mix
# Protocol: Low doses of halofuginone (HF) were tested to determine the ability of HF to enhance Treg differentiation, while suppressing Th17 differentiation. Naïve CD4+ T cells (CD4+ CD25−) were isolated from the spleen and peripheral lymph nodes of C57B/6 mice. T cells were then activated using anti-CD3 (0.3 μg/ml) and anti-CD28 (0.5 μg/ml) antibodies either in media alone (row 1, 4), TGFβ alone (3 ng/ml—row 2, 5) or TGFβ (3 ng/ml) plus IL-6 (30 ng/ml) (row 3, 6). […] T cells were cultured for 3 days and CD25 and Foxp3 expression (Treg marker genes) was determine by FACS staining and flow cytometric analyses. Simultaneously, T cells were harvested and re-stimulated for 4 hours using phorbol myristic acetate (PMA; 10 nM), Ionomycin (1 μM) and cytokine secretion was prevented using brefeldin A (20 μg/ml). Following stimulation, the production of IL-17 and IFNγ were determined by intracellular staining and analyzed via flow cytometry.
# The dose-response of HF on CD4+ T cell proliferation, activation (i.e. CD25 upregulation) and differentiation to Th1, Th2 and Th17 lineages were evaluated. Purified murine naïve CD4+ CD25− T cells were activated using anti-CD3 (0.3 μg/ml) and anti-CD28 (0.5 μg/ml) antibodies and varying amounts of HF was added to each T cell culture condition (1.25 nM-40 nM). CD4+ T cell proliferation was monitored by CFSE dilution on day 3-post activation and CD25 expression was evaluated by FACS staining 2 days after activation. For T cell differentiation experiments, naïve T cells were activated as above in the presence of Th1 (IL-12 (20 ng/ml) plus anti-IL-4 (1.5 μg/ml)), Th2 (IL-4 (50 ng/ml) plus anti-IFNγ (0.5 mg/ml)) or Th17 (TGFβ (3 ng/ml) plus IL-6 (30 ng/ml)) polarizing conditions plus titrating amounts of HF (1.25 nM-40 nM) or MAZ1310 (40 nM). […] All cytokine expression was determined by intracellular staining following PMA+Ionomycin+Brefeldin A re-stimulation and all data was normalized to control (MAZ1310)-treated cells. […] Biol., vol. 80:1-8 (2006).
# (§1) Cytokines, antibodies and T cell culture: Purified CD4^+ CD25^− T cells were activated in vitro as previously described (I. M. Djuretic et al., Nat Immunol 8, 145 (2007)) using 0.3 μg/ml hamster anti-mouse CD3 (clone 145-2C11) (ATCC—Manassas, Va.) and 0.5 μg/ml hamster anti-mouse CD28 (BD Pharmingen, San Jose, Calif.). Activated cell cultures were differentiated using the following combinations of cytokines and antibodies: iTreg=recombinant human TGFβ1 (3 ng/ml; R&D systems, Minneapolis, Minn.), Th17=TGFβ1 (3 ng/ml) plus recombinant mouse IL-6 (30 ng/ml, R&D systems). Th1 and Th2 differentiation was performed as previously described. (I. M. Djuretic et al., Nat Immunol 8, 145 (2007)). Human IL-2 supernatant (National Cancer Institute) was used in culture at 0.01 U/ml and was added at 48 hours-post activation when T cells were split into tissue culture wells lacking CD3 and CD28 antibodies, with the exception of Th17 cultures that were maintained in the absence of IL-2. All reagents were added at the time of T cell activation and again at 48-hours post activation unless indicated otherwise. For some experiments, purified CD4^+ CD25^− T cells, CD8^+ T cells or B cells were labeled with 1 μM CFSE (Invitrogen) prior to activation in accordance with manufacturers instructions.
# MAZ1310 was generated by chemical derivatization of halofuginone and was used at equal concentrations as a negative control.
# TGFβ signaling = TGFβ signaling in T and B cells (Smad phosphorylation, lymphocyte responses to TGFβ); assay type: cell-based, mouse; details: HF 10 nM (2.5-40 nM for Smad); SB-431542 10 μM
# Protocol: DMSO, 10 nM HF, 10 nM MAZ1310 or 10 μM SB-431542 was added as indicated at the time of activation and intracellular cytokine staining was performed on expanded T cells on day 5 as in FIG. 14B
# FIG. 15B is an illustration depicting the analysis of CD8^+ T cells that were activated in the presence or absence of TGFβ and cultured with DMSO, 10 nM HF, 10 nM MAZ1310 or 10 μM SB-431542. Expanded cells were restimulated on day 5 and intracellular staining was performed as above.
# FIG. 15C is an illustration depicting the analysis of CFSE-labeled B cells that were activated by LPS stimulation in the presence or absence of TGFβ plus DMSO, 10 nM HF, 10 nM MAZ1310 or 10 μM SB-431542. Intracellular IL-6 production in B cells re-stimulated with PMA plus ionomycin, or cell-surface IgA expression was determined 4 days after activation by FACS analyses.
# T cells were then activated in the presence or absence of 3 ng/ml TGFβ. Whole cell extracts were prepared after 1 hour of stimulation and western blot analyses were performed using the indicated antibodies.
# Western blotting: Whole cell lysates were generated from T cells activated for the indicated times. For STAT3 and Smad2/3 western blots cells were harvested, washed in PBS and lysed in 50 mM Tris, pH 7.4, 0.1% SDS, 1% Triton-×100, 140 mM NaCl, 1 mM EDTA, 1 mM EGTA supplemented with protease inhibitors tablets (Roche—Germany), 1 mM NaF and 1 mM Na3VO4. […]
# CD4+ CD25− T cells [2] = experiment: CD4+ T cell proliferation, CD25 upregulation, cytokine production, Th1/Th2/iTreg differentiation; assay type: cell-based, mouse; details: titrating concentrations of tunicamycin
# Protocol: The dose-response of HF on CD4+ T cell proliferation, activation (i.e. CD25 upregulation) and differentiation to Th1, Th2 and Th17 lineages were evaluated. Purified murine naïve CD4+ CD25− T cells were activated using anti-CD3 (0.3 μg/ml) and anti-CD28 (0.5 μg/ml) antibodies and varying amounts of HF was added to each T cell culture condition (1.25 nM-40 nM). CD4+ T cell proliferation was monitored by CFSE dilution on day 3-post activation and CD25 expression was evaluated by FACS staining 2 days after activation. For T cell differentiation experiments, naïve T cells were activated as above in the presence of Th1 (IL-12 (20 ng/ml) plus anti-IL-4 (1.5 μg/ml)), Th2 (IL-4 (50 ng/ml) plus anti-IFNγ (0.5 mg/ml)) or Th17 (TGFβ (3 ng/ml) plus IL-6 (30 ng/ml)) polarizing conditions plus titrating amounts of HF (1.25 nM-40 nM) or MAZ1310 (40 nM). The percentage of Th17 cells, (IL-17^+ IFNγ^−) was evaluated on day 3 following activation, whereas the abundance of Th1 cells (IFNγ^+ IL-4) and Th2 cells (IL-4^+ IFNγ^−) was determined 5 days following activation. All cytokine expression was determined by intracellular staining following PMA+Ionomycin+Brefeldin A re-stimulation and all data was normalized to control (MAZ1310)-treated cells. […] Biol., vol. 80:1-8 (2006).
# as §1
# Detection of cytokine production: Cytokines secreted into media supernatant were measured using the mouse Th1/Th2 cytometric bead array (CBA, BD Pharmingen) in accordance with manufacturers instructions. Briefly, CD4^+ CD25^− T cells were activated in anti-CD3/anti-CD28-coated tissue culture wells and supernatants were collected at the indicated times. For detection of intracellular cytokines in murine cells, cultured T or B cells were stimulated with 10 nM PMA (Sigma) and […] (Sigma) for 4-5 hours in the presence of […] (Sigma). Stimulated cells were harvested, washed with PBS and fixed with PBS plus 4% paraformaldehyde at room temperature for 20 minutes. […]
# [3] = system: unfolded protein response (Xbp-1 splicing); experiment: Xbp-1 splicing / ER stress response in activated T cells; details: tunicamycin 1 μg/ml or 10 nM HF, 4 hours
molecule,measurement,setting,value
"O=C(CC1NCCCC1O)Cn1cnc2cc(Br)c(Cl)cc2c1=O (single isomer, unassigned) [D-enantiomer of HF]",inhibition of IL-17 expression by HPLC-purified enantiomers,CD4+ CD25− T cells [1],more potently than a racemic mix
"O=C(CC1NCCCC1O)Cn1cnc2cc(Br)c(Cl)cc2c1=O (single isomer, unassigned) [L-enantiomer]",inhibition of IL-17 expression by HPLC-purified enantiomers,CD4+ CD25− T cells [1],completely inactive
N[C@H](CO)Cc1c[nH]c2ccccc12 [L-tryptophanol],IL-17 production,"CD4+ CD25− T cells [1]; 0.2 mM L-tryptophanol, TGFβ plus IL-6",impaired IL-17 production
CC(C)(C)OC(=O)N1CCC[C@H](O)[C@H]1CC(=O)Cn1cnc2cc(Br)c(Cl)cc2c1=O [MAZ1310],activity of HF derivative used as negative control,CD4+ CD25− T cells [1]; used at equal concentrations as HF,inactive
NC(=O)c1ccc(-c2nc(-c3ccc4c(c3)OCO4)c(-c3ccccn3)[nH]2)cc1 [SB-431542],TGFβ-induced Smad phosphorylation and other lymphocyte responses to TGFβ,TGFβ signaling,abrogated all responses to TGFβ
tunicamycin,Th1 and Th2 differentiation,CD4+ CD25− T cells [2],preferentially impaired
same,Xbp-1 splicing,[3],together with Xbp-1 splicing
same,IL-17 expression in T cells,CD4+ CD25− T cells [1]; titrating concentrations of tunicamycin,little influence
